Here are results for 7 compounds from patent US7709701B2, “Genetic manipulation of condensed tannins” (The Samuel Roberts Noble Foundation, priority 2004, dated 2010).

For assay [1], the system named is MtBAN (Medicago truncatula BAN homolog) protein. Put plainly: Anthocyanidin reductase activity assay with recombinant MtBAN protein extract (HPLC of products). The class given is biochemical. The following applies: for Products formed on incubation with MtBAN protein extract: NADPH, 100 mM Tris-HCl pH 7.0, 30° C., 30 min, HPLC.
The target in assay [2] is AtBAN (Arabidopsis thaliana BAN) protein (Arabidopsis thaliana, UniProt Q9SEV0). It counts as biochemical. The following applies: for Products formed on incubation with AtBAN protein extract: NADPH as coenzyme, 4-month old frozen protein extracts, HPLC.
The subject of assay [3] is anthocyanidin reductase. Put plainly: Anthocyanidin reductase assay with desalted crude enzyme from Desmodium uncinatum flowers, leaves and young pods. The class given is biochemical. The following applies: 1 mM NADPH, 100 μM cyanidin, 30° C., 30 min. As to the method: (§1) Lotus corniculatus, Desmodium uncinatum and Barley cv. Morex were grown in a greenhouse. Young leaves from L. corniculatus, unexpanded leaves, and young pods as well as open flowers and flower buds from D. uncinatum, and young grains from Barley were collected. Seed testas of barley grains were excised and pooled together for enzyme extraction. Mature grape fruit stored at −80° C. was treated in pH 7 100 mM Tris.HCl buffer for 30 seconds for isolating the skin for enzyme extraction.
(§2) A fresh one-gram leaf sample of L. corniculatus, one-gram testa from barley, and 9 grams of grape fruit skin, as well as two grams of flowers, 3 grams of young pods and 3 grams of young unexpanded leaves from Desmodium uncinatum, were independently ground into fine powders in liquid nitrogen. The follow buffer systems were used for enzyme extraction. Extraction buffer 1: pH 7 100 mM Tris.HCl, 10% glycerol and 2 mM 1,4-dithiothreitol; Extraction buffer 2: pH 8 50 mM phosphate buffer, 10% glycerol, 1.5% polyethyleneglycol 4000 (PEG-4000), 2 mM pH 8.0 Na-EDTA, 25 mM sodium ascorbate, 20 mM β-mecaptoenthanol, and 5 mM 1,4-dithiothreitol; Extraction buffer 3: pH 8 100 mM Tris.HCl, 10% glycerol 1.5% polyethyleneglycerol 4000 (PEG-4000), 2 mM pH 8.0 Na-EDTA, 25 mM sodium ascorbate, 80 mM β-mecaptoenthanol, and 5 mM 1,4-dithiothreitol. […]

The test system of assay [4] is anthocyanidin reductase. The assay can be described thus: Anthocyanidin reductase assay with desalted crude enzyme from barley testa. It counts as biochemical, Hordeum vulgare. The following applies: 1 mM NADPH, 100 μM cyanidin, 30° C., 30 min. The protocol:
as §1, §2

Assay [5] has as its target T1, anthocyanidin reductase (Vitis vinifera, UniProt Q5FB34).
T1 construct: 100 μM cyanidin and 50-25 μg desalted crude enzyme; from tissue; host or cells: skin of mature grape fruit
The assay can be described thus: Anthocyanidin reductase assay with desalted crude enzyme from grape fruit skin. It counts as biochemical. The following applies: 1 mM NADPH, 100 μM cyanidin, 30° C., 30 min. As to the method: as §1, §2

Assay [6] deals with anthocyanidin reductase. The assay can be described thus: Anthocyanidin reductase assay with desalted crude enzyme from Lotus corniculatus leaves. It counts as biochemical. The settings on record: 1 mM NADPH, 100 μM cyanidin, 30° C., 30 min. The protocol: as §1, §2
The mark [7] stands for this setting: reactions containing leucoanthocyanidins.

Sequence of AtBAN (Arabidopsis thaliana BAN) protein (Q9SEV0 other isoform, or with tags, fused parts or gaps K55Q/I146L/V156I/E157D/T179K/K185E): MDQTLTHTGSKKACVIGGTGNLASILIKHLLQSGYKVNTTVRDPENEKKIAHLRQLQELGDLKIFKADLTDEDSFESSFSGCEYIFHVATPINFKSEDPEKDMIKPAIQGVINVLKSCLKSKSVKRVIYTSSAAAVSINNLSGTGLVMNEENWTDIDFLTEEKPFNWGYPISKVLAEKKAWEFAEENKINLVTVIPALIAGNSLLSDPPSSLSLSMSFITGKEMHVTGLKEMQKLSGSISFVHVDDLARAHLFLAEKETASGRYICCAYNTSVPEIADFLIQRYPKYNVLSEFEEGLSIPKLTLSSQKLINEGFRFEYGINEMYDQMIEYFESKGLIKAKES
T1 sequence (Q5FB34 whole entry R248Q): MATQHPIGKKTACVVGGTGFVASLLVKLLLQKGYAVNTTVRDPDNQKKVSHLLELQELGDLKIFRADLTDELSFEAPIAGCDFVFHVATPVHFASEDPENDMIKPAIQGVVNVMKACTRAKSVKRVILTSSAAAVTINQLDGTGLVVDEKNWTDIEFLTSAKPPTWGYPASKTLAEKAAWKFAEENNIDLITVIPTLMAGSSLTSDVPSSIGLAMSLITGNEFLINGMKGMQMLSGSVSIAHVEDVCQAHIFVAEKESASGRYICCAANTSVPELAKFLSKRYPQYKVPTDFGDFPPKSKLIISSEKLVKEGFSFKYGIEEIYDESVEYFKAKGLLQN

With leucoanthocyanidins, in assay [1] (setting [7]), the “LAR activity with recombinant MtBAN” value is reported as “no LAR activity was observed”. For the same compound, in assay [2] (setting [7]), the “LAR activity with recombinant AtBAN” value is “no LAR activity was observed”.
Turning to `Oc1cc(O)c2c(c1)O[C@H](c1ccc(O)c(O)c1)[C@H](O)C2` [(−)epicatechin, (−)-epicatechin], the “Products formed on incubation with MtBAN protein extract” value in assay [1] was “does not produce (2S,3R) configuration (−) catechin or (−)epicatechin”. Besides, the “Products formed on incubation with AtBAN protein extract” value in assay [2] is listed as “does not produce (2S,3R) configuration (−) catechin or (−)epicatechin”.
`Oc1cc(O)c2c(c1)O[C@H](c1ccc(O)c(O)c1)[C@@H](O)C2` [(+)-catechin]: the “Products formed on incubation with MtBAN protein extract” value in assay [1] was “does not produce (2S,3R) configuration (−) catechin or (−)epicatechin”. Moreover, the “Products formed on incubation with AtBAN protein extract” value in assay [2] is “does not produce (2S,3R) configuration (−) catechin or (−)epicatechin”.
On to `Oc1ccc(-c2[o+]c3cc(O)cc(O)c3cc2O)cc1` [pelargonidin, Pelargonidin chloride], for which the “Products formed on incubation with MtBAN protein extract” value in assay [1] is given as “catalyzed the reduction of pelargonidin into a new compound eluting at 33.6 min”. Moreover, the “Products formed on incubation with AtBAN protein extract” value in assay [2] was “pelargonidin into epi-alfzelechin”.
As to `Oc1cc(O)c2cc(O)c(-c3ccc(O)c(O)c3)[o+]c2c1.[Cl-]` [cyanidin, cyanidin chloride], the “Product formed by Desmodium uncinatum flower, leaf and young pod enzyme” value in assay [3] was “converted cyanidin into epicatechin”. Further, the “Product formed by barley testa enzyme” value in assay [4] is on record as “converted cyanidin into epicatechin”. For the same compound, the “Product formed by grape fruit skin enzyme” value in assay [5] is “converted cyanidin into epicatechin”. For the same compound, in assay [6], the “Product formed by Lotus corniculatus leaf enzyme” value is listed as “converted cyanidin into epicatechin”. Also, the “Products formed on incubation with MtBAN protein extract” value in assay [1] is “reducing cyanidin to the corresponding flavan-3-ols, catechin and epicatechin”. Also, the “Products formed on incubation with AtBAN protein extract” value in assay [2] is given as “catalyze the reduction of cyanidin to epicatechin”.
With `NC(=O)C1=CN([C@@H]2O[C@H](COP(=O)(O)OP(=O)(O)OC[C@H]3O[C@@H](n4cnc5c(N)ncnc54)[C@H](O)[C@@H]3O)[C@@H](O)[C@H]2O)C=CC1` [NADH], in assay [1] (NADH 2 mM final concentration substituted for NADPH), the “Conversion with NADH relative to the level achieved with NADPH” value is on record as “approximately 50%”.
On to `Oc1cc(O)c2cc(O)c(-c3cc(O)c(O)c(O)c3)[o+]c2c1` [delphinidin, delphinidin chloride], for which, in assay [1], the “Products formed on incubation with MtBAN protein extract” value was “catalyzed the reduction of delphinidin into putative gallo-catechin and epi-gallocatechin”. In addition, in assay [2], the “Products formed on incubation with AtBAN protein extract” value is recorded as “delphinidin into gallocatechin”.
